No end group written: not given here.
Key:
[1] = test system: hematopoietic stem cell adhesion factors (Sdf-1a, KitI, Angpt1) present in osteoblasts; test: expression of hematopoietic stem cell adhesion factors in osteoblasts, real-time quantitative PCR; format: cell-based, mouse; settings: 10 nM peptide for 3 days; compared to osteoblasts (control) not treated with peptides; fold change
Method: All mice used in the experiment were 6 to 8 weeks old mice, C57BL/6 mice, and purchased from Jackson Laboratory (Bar Harbor, Me., USA). NPY (21-28) (SEQ ID NO: 1), NPY (24-31) (SEQ ID NO: 2), NPY (29-36) (SEQ ID NO: 3), NPY D25 (21-28) (SEQ ID NO: 4), NPY D26 (21-28) (SEQ ID NO: 5), NPY D25, 26 (21-28) (SEQ ID NO: 6), NPY (21-36) (Osteopep2) (SEQ ID NO: 7) were prepared from Anygen. Full length NPY (SEQ ID NO: 8) was purchased from Bachem. 10 nM of each peptide was diluted in each medium and injected for in vitro experiments. The NPY D^25(21-28) refers to a peptide in which arginine, the fifth amino acid of the amino acid sequence of NPY (21-28), is modified to D-type, the NPY D^26(21-28) refers to a peptide in which the sixth amino acid histidine is modified to D-form, and the D^25,26(21-28) refers to a peptide in which both the fifth and sixth amino acids are modified to D-form, respectively.
Four to six weeks old C57BL/6 mice were sacrificed after anesthesia, and then tibias and femurs were dissected. Bone marrow was harvested from tibias and femurs and single cell suspensions were obtained using a 40 μm cell strainer (Becton-Dickinson LAβware, Franklin Lakes, N.J.). Approximately […] were dispensed into 75-cm 2 flasks containing mesenchymal stem cells Stimulatory Supplements with antibiotics (Stem Cell Technologies, Inc) and MesenCult™ MSCBasal medium. The cells were incubated for 1 week and further incubated for 3 weeks with StemXVivo Osteogenic/Adipogenic Base Media (R & D systems) supplemented with StemXVivo Osteogenic supplement (20×) and penicillin-streptomycin (100×) for differentiation into osteoblasts.
Real-time quantitative PCR was used to measure expression levels of hematopoietic stem cell adhesion factors (Sdf-1a, KitI, Angpt1) present in osteoblasts. Total RNA was extracted from cell eluate and bone marrow cells using the RNeasy Plus mini kit (Qiagen, Korea, Ltd), and cDNAs were synthesized from 5 μg total RNA using a kit in Clontech (Mountain View, Calif.). In addition, using a Corbett research RG-6000 real-time PCR instrument, Real-time quantitative PCR was performed at 95° C. for 10 minutes; at 95° C., for 10 seconds; at 58° C., for 15 seconds; at 72° C. for 20 seconds as one cycle, and 40 cycles were repeated.
First, bone marrow was harvested from 4 to 6 weeks old C57BL6 mice, and mesenchymal stem cells (BM-MSCs) in bone marrow were collected, and then cultured for 3 weeks in osteoblast differentiation induction medium for the differentiation into osteoblasts. After 28 days, each peptide was treated with 10 nM for 3 days, and bone cells were collected and examined for expression levels of three adhesion factors by real-time quantitative PCR. Osteopep2 and its parent NPY were used as positive controls.

[2] = test system: animal models of osteoporosis; test: Micro CT bone density in animal models of osteoporosis; format: in vivo, mouse; settings: OVX mice, 50 μg/kg i.p. twice a day for 4 weeks; femur microCT; compared to PBS
Method: To make an osteoporosis model, 10-18 12 weeks old female mice per group underwent ovarian ablation. A week later, 50 μg/kg of NPY(21-28), NPY D^25(21-28), NPY D^26(21-28), NPY D^25,26(21-28), Osteopep2, NPY and 100 μl of PBS(Gibco) were intraperitoneally administered twice a day for 4 weeks at 12 hour intervals. Alendronate (Sigma), used as a competitive drug, was intraperitoneally administered once a week for 4 weeks at a dose of 50 μg/kg. As a control group, only Sham model of osteoporosis was performed by subcutaneous dissection of female mouse. Mice were placed in experimental groups using the Block randomization method, and all mouse experiments were approved through the Kyungpook National University Institutional Animal Care and Use Committee. The femurs were separated from the mouse and refrigerated in 80% ethanol, and in order to measure change of bone density, the bone volume/total volume and trabecular thickness were measured by analyzing the area between 0.7 mm and 2.3 mm from the growth plate baseline with the Quantum FX microCT Imaging System. Femurs were separated from mice after the last administration of NPY (21-28) at 4 weeks. To determine the change of bone density, bone density (bone volume/total volume) and bone tissue thickness (trabecular thickness) were measured with the Quantum FX microCT Imaging System. Femurs were separated from mice after the last administration of NPY D^25(21-28), NPY D^26(21-28), and NPY D^25,26(21-28) at 4 weeks. To determine the change of bone density, bone density (bone volume/total volume) and bone tissue thickness (trabecular thickness) were measured with the Quantum FX microCT Imaging System.

[3] = test system: osteoclasts in bone marrow; test: TRAP staining of osteoclasts in bone marrow of osteoporosis animal models; format: in vivo, mouse; settings: OVX mice, 50 μg/kg i.p. twice a day for 4 weeks; compared to PBS
Method: To make an osteoporosis model, 10-18 12 weeks old female mice per group underwent ovarian ablation. A week later, 50 μg/kg of NPY(21-28), NPY D^25(21-28), NPY D^26(21-28), NPY D^25,26(21-28), Osteopep2, NPY and 100 μl of PBS(Gibco) were intraperitoneally administered twice a day for 4 weeks at 12 hour intervals. Alendronate (Sigma), used as a competitive drug, was intraperitoneally administered once a week for 4 weeks at a dose of 50 μg/kg. As a control group, only Sham model of osteoporosis was performed by subcutaneous dissection of female mouse. Mice were placed in experimental groups using the Block randomization method, and all mouse experiments were approved through the Kyungpook National University Institutional Animal Care and Use Committee.
The femurs were separated from the mice and fixed in 4% paraformaldehyde for 24 hours, and tissue was decalcified in 10% EDTA for 5 weeks. It was then dehydrated with a series of diluted alcohols, paraffinized, and prepared into […] paraffin sections.
For TRAP staining, sections were deparaffinized, stained with 1.33 mM Fast Red Violet LB Salt (Sigma-Aldrich) in 50 mM sodium acetate (pH 5.0) containing 225 μM Naphthol AS-MX phosphate (Sigma-Aldrich, St Louis, Mo., USA), 0.84% N, N-dimethylformamide (Sigma-Aldrich) and 50 mM sodium tartrate, and incubated for 30 minutes. After incubation, the sections were washed with distilled water and counterstained with 1% methyl green.
Histomorphometric analysis was performed using the OsteoMeasure program (Extensive interactive Bone Histomorphometry Analysis System).
After the last administration at 4 weeks of NPY (21-28), the femurs were separated from the mice and the number of osteoclasts in the bone marrow was measured by TRAP staining.
After the last administration at 4 weeks of NPY D^25(21-28), NPY D^26(21-28), and NPY D^25,26(21-28), the femurs were separated from the mice and the number of osteoclasts in the bone marrow was measured by TRAP staining.

Substance	expression levels of Sdf-1a, KitI, and Angpt1 in osteoblasts [1]	bone tissue thickness (trabecular thickness) [2]	percentage of bone density (BV/TV) [2]	number of TRAP positive osteoclasts in bone marrow (Number of osteoclast/Bone surface) [3]	osteoclast surface (Osteoclast surface/Bone surface) [3]
NPY (29-36): recombinant peptide consisting of eight amino acids of NPY, SEQ ID NO: 3 (NLITRQRY; ends and bridges not checked)	decreased only in osteoblasts treated with NPY (21-28)				
NPY: full length neuropeptide Y purchased from Bachem, used as positive control [reference compound]		increased	increased	reduced	reduced
NPY (24-31): recombinant peptide consisting of eight amino acids of NPY, SEQ ID NO: 2 (LRHYINLI; synthetic neuropeptide Y fragment (24-31))	decreased only in osteoblasts treated with NPY (21-28)				

Reference: US11279744B2, “Neuropeptide Y fragment capable of releasing hematopoietic stem cells into blood and treating osteoporosis” (Kyungpook National University Industry-Academic Cooperation …, priority 2017, dated 2022)
